Source: PubChem BioAssay (NCI)
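Interpolation was linear, between the two tested concentrations surrounding the appropriate level; five concentrations were tested over 48 hours in 96-well plates. GI50 is the concentration that inhibits growth by half. TGI marks complete inhibition of growth.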

tested on: CAKI-1 renal; experiment: NCI tumour cell line growth inhibition, 48 h

SMILES	GI50 [µM]	TGI [µM]
CN(C)c1ccc(C(O)C2=CC(=O)c3ccccc3C2=O)cc1 (centres undefined)	7.87	32.1
Clc1ccc(CN2CCCN(Cc3ccc(Cl)cc3)C2c2cc3ccccc3c3ccccc23)cc1		> 100
COc1ccc2c(c1OC)O/C(=C\c1ncc([N+](=O)[O-])n1C)C2=O	0.376	2.46
COc1ccc(/C=C\c2cc(OC)c(OC)c(OC)c2)cc1		43.4
C=C1CC[C@H]2C(C)=CC[C@H]3C(=C)C(=O)O[C@@H]3[C@@H]12		> 100
COc1cc(OC)c2c(=O)c3cccc([N+](=O)[O-])c3n(C)c2c1		> 100
COc1ccc(-c2csc(Nc3cccc(-c4csc(C)n4)c3)n2)cc1	1.15	> 14
COc1cc(/C=C2\SC(N3CCCCC3)=NC2=O)ccc1OCCCCCCOc1ccc(/C=C2\SC(N3CCCCC3)=NC2=O)cc1OC	22.7	84.7
CCOC1Oc2ccc(C)cc2C(=O)/C1=C\Nc1ccc(S(N)(=O)=O)cc1 (centres undefined)	10.6	23.3
Cc1cc(NN=C(c2ccc(O)cc2)c2ccc(O)cc2)c([N+](=O)[O-])cc1[N+](=O)[O-]	18.7	51.1
COc1ccc(-c2c(N)noc2-c2cc(OC)c3c(c2)OCCO3)cc1	< 0.01	34.1
COc1ccc(-c2cc(/C=C/C(=O)c3ccc(N)cc3)[nH]n2)cc1	1.32	11.1
CCOC(=O)c1c(NC(=O)c2ccc(Cl)cc2)sc2c(CN(C)C)c(O)ccc12	5.57	32.5
N#Cc1cc(S(=O)(=O)Nc2nc3cc(Cl)ccc3o2)c(SCc2ccccc2)cc1Cl	18.5	35.1
C#C[C@]1(O)CC[C@H]2[C@@H]3CC=C4c5nc(N)sc5CC[C@]4(C)[C@H]3CC[C@@]21C	3.08	14.8
O=CN1N=C(c2cccc(Nc3ccnc4cc(Cl)ccc34)c2)CC1c1ccc(Cl)cc1 (centres undefined)	0.954	> 100
O=C1C(=O)C2(CC1S(=O)(=O)c1ccccc1)c1ccccc1-c1ccccc12 (centres undefined)		61.6
Cc1ccc(S(=O)C(C)C(Cl)c2ccccc2)cc1 (centres undefined)		> 100
CN1CCc2ccccc2C(C(=O)c2ccc3c(c2)OCO3)C1=O (centres undefined)		> 100
COc1ccc(C2=Nn3c(nnc3-n3nc(C)cc3C)SC2)cc1	0.0443	> 43.4
COc1ccc(C)cc1NC(=S)C#N		> 100
CC(=O)Oc1cc2cnc3c4cc(OC(C)=O)c(OC(C)=O)cc4ccc3c2cc1OC(C)=O	0.611	> 100
OCC(O)C(O)C(O)c1nn(-c2ccc(F)cc2)c2nc3cc(Cl)c(Cl)cc3nc12 (centres undefined)		55.6
CCCCCC[C@H]1C(=O)O[C@H](C)[C@H](NC(=O)c2cccc(NC=O)c2OC)C(=O)O[C@@H](C)[C@@H]1OC(=O)CCC (tested in a mixture with another compound)	9.71	24.4
COc1ccc(C2Cc3cc(OC)c(OC)c(OC)c3C2)cc1 (centres undefined)		> 100

tested on: SN12C renal; experiment: NCI tumour cell line growth inhibition, 48 h

SMILES	GI50 [µM]	TGI [µM]
CS(=O)(=O)Nc1cc(-c2ccc3ncnc(Nc4cccc(Cl)c4)c3c2)cnc1Cl	0.447	51.2
CN(C)c1ccc(C(O)C2=CC(=O)c3ccccc3C2=O)cc1 (centres undefined)	1.56	4.54
Clc1ccc(CN2CCCN(Cc3ccc(Cl)cc3)C2c2cc3ccccc3c3ccccc23)cc1		> 100
COc1ccc2c(c1OC)O/C(=C\c1ncc([N+](=O)[O-])n1C)C2=O	1.78	8.83
COc1ccc(/C=C\c2cc(OC)c(OC)c(OC)c2)cc1		> 100
COc1cc(N(C)C)c(OC)cc1C=C1C=CC=C1		> 100
C[C@H]1CC[P+](C)(c2ccccc2)C1 (some centres undefined)		> 100
C=C1CC[C@H]2C(C)=CC[C@H]3C(=C)C(=O)O[C@@H]3[C@@H]12		> 100
COc1cc(OC)c2c(=O)c3cccc([N+](=O)[O-])c3n(C)c2c1		> 100
COc1ccc(-c2csc(Nc3cccc(-c4csc(C)n4)c3)n2)cc1	0.97	7.96
